Data reported in patent US12428406B2 (PMV Pharmaceuticals, Inc., priority 2019, dated 2025).

biological target: T1, p53 Y220C (Homo sapiens, UniProt P04637, Y220C); assay: In vitro DNA binding activity assay (HTRF / TR-FRET): stabilization of p53 Y220C and increase of its DNA binding activity; type: biochemical; settings: recombinant His-tagged p53 Y220C DNA binding domain (aa 94-312), biotin-labeled consensus DNA, incubated at 27° C. or 29° C. for 60 min
T1 construct: The recombinant protein was a truncation mutant containing only amino acids 94-312 of p53; made in house; host or cells: E. coli
T1 sequence (P04637 94-312, change not shown): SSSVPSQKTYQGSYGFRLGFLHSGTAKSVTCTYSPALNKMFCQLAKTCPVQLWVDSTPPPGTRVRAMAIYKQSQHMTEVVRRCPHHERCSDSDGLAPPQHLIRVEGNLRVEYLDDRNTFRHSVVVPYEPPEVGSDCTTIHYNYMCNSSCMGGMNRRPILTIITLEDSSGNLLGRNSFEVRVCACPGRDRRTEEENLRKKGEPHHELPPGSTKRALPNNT
In short: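 Test compounds, diluted 3-fold in DMSO from 4.5 mM stocks, were incubated with bacterially expressed His-tagged p53 Y220C at room temperature for 15 min, and after a further step for 20 min. DNA binding was detected by time-resolved FRET between APC and europium labels. SC150 marks the concentration increasing binding by 50%.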

Row | SMILES | SC150 (concentration of the compound required to increase the DNA binding activity by 50%)
1 | COc1cc(S(C)(=O)=O)ccc1NCC#Cc1cc2c(NC(C)=O)cccc2n1CC(F)(F)F [Compound 5A, N-(2-{3-[(4-methanesulfonyl-2-methoxyphenyl)amino]prop-1-yn-1-yl}-1-(2,2,2-trifluoroethyl)-1H-indol-4-yl)acetamide] | ++++ (++++ = 0.2 μM ≤ SC150 < 1 μM)
2 | COc1cc(S(C)(=O)=O)ccc1NCC#Cc1cc2c(N[C@H]3CC[C@@H](N4CCC5(CC4)COC5)CC3)cccc2n1CC(F)(F)F [Compound 374A, 2-{3-[(4-methane-sulfonyl-2-methoxy-phenyl)amino]prop-1-yn-1-yl}-N-[(1S,4S)-4-{2-oxa-7-azaspiro[3.5]nonan-7-yl}cyclohexyl]-1-(2,2,2-trifluoroethyl)-1H-indol-4-amine] | + (+ = 0 μM ≤ SC150 < 0.05 μM)
3 | COCCN(C)[C@H]1CC[C@H](Nc2cccc3c2cc(C#CCNc2ccc(S(C)(=O)=O)cc2OC)n3CC(F)(F)F)CC1 [Compound 57A, (1R,4R)-N^4-(2-{3-[(4-methanesulfonyl-2-methoxyphenyl)amino]prop-1-yn-1-yl}-1-(2,2,2-trifluoro-ethyl)-1H-indol-4-yl)-N^1-(2-methoxyethyl)-N^1-methylcyclohexane-1,4-diamine] | + (+ = 0 μM ≤ SC150 < 0.05 μM)
4 | COc1cc(S(N)(=O)=O)ccc1NCC#Cc1cc2c(NC3CCC(=O)CC3)cccc2n1CC(F)(F)F [Compound 65A, 3-methoxy-4-[(3-{4-[(4-oxocyclohexyl)amino]-1-(2,2,2-trifluoroethyl)-1H-indol-2-yl}prop-2-yn-1-yl)amino]benzene-1-sulfonamide] | + (+ = 0 μM ≤ SC150 < 0.05 μM)
5 | COc1cc(C#N)ccc1NCC#Cc1cc2c(NC3CCC(N4CC5(COC5)C4)CC3)cccc2n1CC(F)(F)F (stereo not shown) [Compound 249A, 3-methoxy-4-[(3-{4-[(4-{2-oxa-6-azaspiro[3.3]heptan-6-yl}cyclohexyl)amino]-1-(2,2,2-trifluoroethyl)-1H-indol-2-yl}prop-2-yn-1-yl)amino]benzonitrile] | + (+ = 0 μM ≤ SC150 < 0.05 μM)
6 | CCNC(=O)c1ccc(NCC#Cc2cc3c(N[C@H]4CC[C@@H](N5CC6(COC6)C5)CC4)cccc3n2CC(F)(F)F)c(OC)c1 [Compound 238A, N-ethyl-3-methoxy-4-{[3-(4-{[(1R,4R)-4-{2-oxa-6-azaspiro[3.3]heptan-6-yl}cyclohexyl]amino}-1-(2,2,2-trifluoro-ethyl)-1H-indol-2-yl)prop-2-yn-1-yl]amino} benzamide] | + (+ = 0 μM ≤ SC150 < 0.05 μM)
7 | CNC(=O)c1ccc(NCC#Cc2cc3c(N[C@H]4CC[C@H](N5CC6(COC6)C5)CC4)cccc3n2CC(F)(F)F)c(OC)c1 [Compound 229A, 3-methoxy-N-methyl-4-{[3-(4-{[(1R,4R)-4-{2-oxa-6-azaspiro[3.3]heptan-6-yl}cyclohexyl]amino}-1-(2,2,2-trifluoroethyl)-1H-indol-2-yl)prop-2-yn-1-yl]amino}benzamide] | + (+ = 0 μM ≤ SC150 < 0.05 μM)
8 | CNC(=O)c1ccc(NCC#Cc2cc3c(N[C@H]4CC[C@H](N5CCCC(OC)C5)CC4)cccc3n2CC(F)(F)F)c(OC)c1 (stereo partly drawn) [Compound 356A, 3-methoxy-N-methyl-4-{[3-(4-{[(1R,4R)-4-(3-methoxypiperidin-1-yl)cyclohexyl]amino}-1-(2,2,2-trifluoroethyl)-1H-indol-2-yl)prop-2-yn-1-yl]amino} benzamide] | + (+ = 0 μM ≤ SC150 < 0.05 μM)
9 | COCCN(CCOC)[C@H]1CC[C@@H](Nc2cccc3c2cc(C#CCNc2ccc(S(N)(=O)=O)cc2OC)n3CC(F)(F)F)CC1 [Compound 62A, 3-methoxy-4-{[3-(4-{[(1S,4S)-4-[bis(2-methoxyethyl)amino]cyclo-hexyl]amino}-1-(2,2,2-trifluoroethyl)-1H-indol-2-yl)prop-2-yn-1-yl]amino}benzene-1-sulfonamide] | + (+ = 0 μM ≤ SC150 < 0.05 μM)

More lines, now with the values ahead:

Row | SC150 (concentration of the compound required to increase the DNA binding activity by 50%) | SMILES
10 | + (+ = 0 μM ≤ SC150 < 0.05 μM) | COCC(O)CN1CCCC(Nc2cccc3c2cc(C#CCNc2ccc(S(C)(=O)=O)cc2OC)n3CC(F)(F)F)C1 (stereo not shown) [Compound 695A, 1-{3-[(2-{3-[(4-methanesulfonyl-2-methoxyphenyl)amino]prop-1-yn-1-yl}-1-(2,2,2-trifluoroethyl)-1H-indol-4-yl)amino]piperidin-1-yl}-3-methoxypropan-2-ol]
11 | + (+ = 0 μM ≤ SC150 < 0.05 μM) | COc1cc(S(C)(=O)=O)ccc1NCC#Cc1cc2c(NC3CCN(C[C@@H](O)CO)CC3)cccc2n1CC(F)(F)F [Compound 557A, (2R)-3-{4-[(2-{3-[(4-methanesulfonyl-2-methoxyphenyl)amino]prop-1-yn-1-yl}-1-(2,2,2-trifluoroethyl)-1H-indol-4-yl)amino]piperidin-1-yl}propane-1,2-diol]
12 | + (+ = 0 μM ≤ SC150 < 0.05 μM) | COc1cc(S(=O)(=O)N(C)C)ccc1NCC#Cc1cc2c(NC3CCN(C)CC3)cccc2n1CC(F)(F)F [Compound 473A, 3-methoxy-N,N-dimethyl-4-[(3-{4-[(1-methylpiperidin-4-yl)amino]-1-(2,2,2-trifluoroethyl)-1H-indol-2-yl}prop-2-yn-1-yl)amino]benzene-1-sulfonamide]
13 | + (+ = 0 μM ≤ SC150 < 0.05 μM) | COc1cc(C(=O)NC[C@H](C)O)ccc1NCC#Cc1cc2c(N[C@@H]3CCN(C)C[C@@H]3F)cccc2n1CC(F)(F)F [Compound 961A, 4-{[3-(4-{[(3S,4R)-3-fluoro-1-methylpiperidin-4-yl]amino}-1-(2,2,2-trifluoroethyl)-1H-indol-2-yl)prop-2-yn-1-yl]amino}-N-[(2S)-2-hydroxypropyl]-3-methoxybenzamide]
14 | + (+ = 0 μM ≤ SC150 < 0.05 μM) | CNS(=O)(=O)c1ccc(NCC#Cc2cc3c(NC4CCN(CC(O)COC)CC4)cccc3n2CC(F)(F)F)c(OC)c1 (stereo not shown) [Compound 609A]
15 | + (+ = 0 μM ≤ SC150 < 0.05 μM) | COc1cc(S(N)(=O)=O)ccc1NCC#Cc1cc2c(N[C@H]3CCN(C)C[C@H]3F)cccc2n1CC(F)(F)F [Compound 790A, 4-{[3-(4-{[(3R,4S)-3-fluoro-1-methylpiperidin-4-yl]amino}-1-(2,2,2-trifluoroethyl)-1H-indol-2-yl)prop-2-yn-1-yl]amino}-3-methoxybenzene-1-sulfonamide]
16 | + (+ = 0 μM ≤ SC150 < 0.05 μM) | COCCN(C)S(=O)(=O)c1ccc(NCC#Cc2cc3c(NC4CCN(CC(O)CO)CC4)cccc3n2CC(F)(F)F)c(OC)c1 (stereo not shown) [Compound 572A, 4-{[3-(4-{[1-(2,3-dihydroxypropyl)piperidin-4-yl]amino}-1-(2,2,2-trifluoroethyl)-1H-indol-2-yl)prop-2-yn-1-yl]amino}-3-methoxy-N-(2-methoxyethyl)-N-methylbenzene-1-sulfonamide]
17 | + (+ = 0 μM ≤ SC150 < 0.05 μM) | COc1cc(S(C)(=O)=O)ccc1NCC#Cc1cc2c(N[C@H]3CCNC[C@H]3F)cccc2n1CC(F)(F)F [Compound 848A]
18 | + (+ = 0 μM ≤ SC150 < 0.05 μM) | COc1cc(S(N)(=O)=O)ccc1NCC#Cc1cc2c(N[C@H]3CCN(C[C@H](COC(C)=O)OC(C)=O)C[C@H]3F)cccc2n1CC(F)(F)F [Compound 888A, (2R)-1-(acetyloxy)-3-[(3R,4S)-3-fluoro-4-[(2-{3-[(2-methoxy-4-sulfamoylphenyl)amino]prop-1-yn-1-yl}-1-(2,2,2-trifluoroethyl)-1H-indol-4-yl)amino]piperidin-1-yl]propan-2-yl acetate]
19 | + (+ = 0 μM ≤ SC150 < 0.05 μM) | COc1cc(S(=O)(=O)NC2CCOCC2)ccc1NCC#Cc1cc2c(NC3CCN(CC(O)CO)CC3)cccc2n1CC(F)(F)F (stereo not shown) [Compound 552A, 4-{[3-(4-{[1-(2,3-dihydroxypropyl)piperidin-4-yl]amino}-1-(2,2,2-trifluoroethyl)-1H-indol-2-yl)prop-2-yn-1-yl]amino}-3-methoxy-N-(oxan-4-yl) benzene-1-sulfonamide]
20 | + (+ = 0 μM ≤ SC150 < 0.05 μM) | CN1CCC(Nc2cccc3c2cc(C#CCNc2ccc(S(C)(=O)=O)cc2OCF)n3CC(F)(F)F)CC1 [Compound 490A, 2-(3-{[2-(fluoromethoxy)-4-methanesulfonylphenyl]amino}prop-1-yn-1-yl)-N-(1-methylpiperidin-4-yl)-1-(2,2,2-trifluoroethyl)-1H-indol-4-amine]
21 | + (+ = 0 μM ≤ SC150 < 0.05 μM) | COc1cc(S(=O)(=O)N2CCN(C)CC2)ccc1NCC#Cc1cc2c(NC3CCN(CC(O)CO)CC3)cccc2n1CC(F)(F)F (stereo not shown) [Compound 559A, 3-[4-({2-[3-({2-methoxy-4-[(4-methylpiperazin-1-yl)sulfonyl]phenyl}amino)prop-1-yn-1-yl]-1-(2,2,2-trifluoroethyl)-1H-indol-4-yl}amino)piperidin-1-yl]propane-1,2-diol]
22 | + (+ = 0 μM ≤ SC150 < 0.05 μM) | COc1cc(C(=O)N(C)C)ccc1NCC#Cc1cc2c(N[C@@H]3CCN(C)C[C@@H]3F)cccc2n1CC(F)(F)F [Compound 942A, 4-{[3-(4-{[(3S,4R)-3-fluoro-1-methylpiperidin-4-yl]amino}-1-(2,2,2-trifluoroethyl)-1H-indol-2-yl)prop-2-yn-1-yl]amino}-3-methoxy-N,N-dimethylbenzamide]
